In ChEMBL document CHEMBL1201862, “PubChem BioAssay data set” (2004):
Calls of active or inactive are those of the source.

Legend:
[1] = biological target: CAAX prenyl protease 1 (Saccharomyces cerevisiae S288c, UniProt P47154); assay: Ste24 protease inhibitors, dose response, biochemical, S. cerevisiae, plate reader, cherry-pick (AID 488815)
[2] = biological target: CAAX prenyl protease 2 (Saccharomyces cerevisiae S288c, UniProt Q03530); type: biochemical
[3] = biological target: CAAX prenyl protease 2 (Homo sapiens, UniProt Q9Y256); assay: human Rce1 protease inhibitors, dose response, biochemical, yeast membranes, quenched-peptide fluorescence, cherry-pick (AID 588849)
Sequence of CAAX prenyl protease 2 (Homo sapiens, UniProt Q9Y256) (Q9Y256 whole entry): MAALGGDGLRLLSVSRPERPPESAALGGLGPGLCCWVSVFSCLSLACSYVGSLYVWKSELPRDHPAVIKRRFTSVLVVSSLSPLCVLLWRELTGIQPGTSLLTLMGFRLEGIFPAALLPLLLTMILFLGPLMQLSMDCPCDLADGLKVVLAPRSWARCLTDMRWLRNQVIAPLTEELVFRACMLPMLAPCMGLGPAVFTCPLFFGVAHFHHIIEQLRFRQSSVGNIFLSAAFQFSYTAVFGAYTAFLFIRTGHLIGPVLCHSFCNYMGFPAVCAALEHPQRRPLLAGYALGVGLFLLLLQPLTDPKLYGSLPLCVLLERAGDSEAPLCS

[4] = biological target: Trypsin (Sus scrofa, UniProt P00761); assay: porcine trypsin inhibitors, dose response, selectivity assay for Rce1 protease inhibitor project, biochemical, quenched peptide fluorescence, cherry-pick (AID 488789)
Sequence of Trypsin (P00761 whole entry): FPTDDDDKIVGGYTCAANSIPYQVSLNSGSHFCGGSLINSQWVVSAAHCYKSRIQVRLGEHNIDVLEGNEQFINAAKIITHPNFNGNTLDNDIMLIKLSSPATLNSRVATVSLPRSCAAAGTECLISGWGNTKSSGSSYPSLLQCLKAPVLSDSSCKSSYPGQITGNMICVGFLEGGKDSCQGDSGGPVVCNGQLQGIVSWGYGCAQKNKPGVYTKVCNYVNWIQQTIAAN

[5] = test system: HEK293; assay: cells; type: functional, cell-based; settings: Homo sapiens
[6] = biological target: Nucleotide-binding oligomerization domain-containing protein 2 (Homo sapiens, UniProt Q9HC29); assay: NOD2 signaling inhibitors, cell-based, luminescence, uHTS, HEK293 (AID 1566); type: functional
Sequence of Nucleotide-binding oligomerization domain-containing protein 2 (Q9HC29 whole entry, the tested form may be a part): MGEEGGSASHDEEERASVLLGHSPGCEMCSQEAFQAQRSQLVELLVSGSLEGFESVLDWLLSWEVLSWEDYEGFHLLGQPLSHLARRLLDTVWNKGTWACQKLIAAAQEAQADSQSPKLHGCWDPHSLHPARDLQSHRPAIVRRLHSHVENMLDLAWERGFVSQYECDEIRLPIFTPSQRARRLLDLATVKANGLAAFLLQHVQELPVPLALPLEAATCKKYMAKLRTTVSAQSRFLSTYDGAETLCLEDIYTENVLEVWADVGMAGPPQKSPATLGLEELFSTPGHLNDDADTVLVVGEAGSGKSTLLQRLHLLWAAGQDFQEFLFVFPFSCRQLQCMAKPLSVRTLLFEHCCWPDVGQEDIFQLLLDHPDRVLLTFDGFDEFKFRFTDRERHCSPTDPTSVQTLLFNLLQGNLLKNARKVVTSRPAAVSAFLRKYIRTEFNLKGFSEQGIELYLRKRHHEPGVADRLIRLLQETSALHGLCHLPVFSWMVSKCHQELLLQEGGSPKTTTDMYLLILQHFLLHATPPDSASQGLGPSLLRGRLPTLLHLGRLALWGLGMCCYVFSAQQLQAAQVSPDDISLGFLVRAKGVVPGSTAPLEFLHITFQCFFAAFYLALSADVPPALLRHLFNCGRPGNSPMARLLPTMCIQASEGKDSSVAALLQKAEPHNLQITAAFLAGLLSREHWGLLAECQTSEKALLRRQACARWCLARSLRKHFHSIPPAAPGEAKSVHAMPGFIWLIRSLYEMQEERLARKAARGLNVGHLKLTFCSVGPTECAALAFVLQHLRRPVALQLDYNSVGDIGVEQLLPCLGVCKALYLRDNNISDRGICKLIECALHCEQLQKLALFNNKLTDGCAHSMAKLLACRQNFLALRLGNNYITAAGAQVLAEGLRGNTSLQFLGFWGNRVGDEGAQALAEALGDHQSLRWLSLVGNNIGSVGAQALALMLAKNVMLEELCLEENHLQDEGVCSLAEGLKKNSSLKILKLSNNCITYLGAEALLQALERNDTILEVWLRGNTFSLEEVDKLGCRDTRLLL

[7] = test system: HEK293; assay: NOD2 signaling inhibitors in MDP-stimulated cells, cell-based, uHTS, luminescence (AID 2001); type: functional; settings: Homo sapiens
[8] = test system: HEK293; assay: NOD1 signaling inhibitors, primary screen, cell-based, luminescence, uHTS (AID 1578); type: functional; settings: Homo sapiens
[9] = test system: HEK293; assay: cells; type: functional, cell-based; settings: Homo sapiens; remark: listed apart in the source
[10] = test system: HEK293; assay: cells; type: functional, cell-based; settings: Homo sapiens; remark: listed apart in the source

Sequence of CAAX prenyl protease 2 (Saccharomyces cerevisiae S288c, UniProt Q03530) (Q03530 whole entry): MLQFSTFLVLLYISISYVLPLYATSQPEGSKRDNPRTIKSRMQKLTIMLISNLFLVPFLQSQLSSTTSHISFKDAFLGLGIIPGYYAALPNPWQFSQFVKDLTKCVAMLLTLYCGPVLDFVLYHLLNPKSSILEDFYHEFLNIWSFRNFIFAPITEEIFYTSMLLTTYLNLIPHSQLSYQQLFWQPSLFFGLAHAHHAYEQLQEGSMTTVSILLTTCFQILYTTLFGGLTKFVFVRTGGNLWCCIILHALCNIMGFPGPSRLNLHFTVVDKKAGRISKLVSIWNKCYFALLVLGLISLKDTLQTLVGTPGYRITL
Sequence of CAAX prenyl protease 1 (P47154 whole entry): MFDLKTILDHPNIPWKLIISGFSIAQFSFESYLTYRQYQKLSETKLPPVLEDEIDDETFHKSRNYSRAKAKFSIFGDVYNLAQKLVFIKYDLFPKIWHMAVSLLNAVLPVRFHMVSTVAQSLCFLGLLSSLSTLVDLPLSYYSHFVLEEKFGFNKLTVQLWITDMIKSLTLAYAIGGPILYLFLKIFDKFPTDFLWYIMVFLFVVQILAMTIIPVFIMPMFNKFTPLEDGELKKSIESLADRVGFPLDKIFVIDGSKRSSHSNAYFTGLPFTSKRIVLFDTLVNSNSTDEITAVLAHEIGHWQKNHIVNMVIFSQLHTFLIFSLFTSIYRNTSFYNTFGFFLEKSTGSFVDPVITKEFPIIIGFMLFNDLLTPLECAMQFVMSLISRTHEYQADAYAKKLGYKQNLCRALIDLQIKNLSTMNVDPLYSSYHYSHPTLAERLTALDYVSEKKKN

Nc1nc(N2CCN(C(=O)c3ccco3)CC2)nc2ccccc12
AC50 [1]: 3.46 µM (active)
AC50 [2]: 28.7 µM (active)
AC50 [3]: 8.22 µM (active)
AC50 [4]: 15.3 µM (active)

CC(=O)c1ccc(Nc2nc3ccccc3nc2NS(=O)(=O)c2cccs2)cc1
IC50 [5]: > 20 µM (inactive)
EC50 [6]: 6.47 µM (active)
IC50 [7]: 9.59 µM (active)
EC50 [8]: 8.18 µM (active)
IC50 [9]: 15.6 µM (active)
IC50 [10]: > 20 µM (inactive)
